# Assay results from patent US7304037B2, “Cytostatic conjugates with integrin ligands” (priority 2001, dated 2007).
# Like-named read-outs stand apart in the source and are kept apart here.
# Legend:
# [1] = target: T1, αvβ3 receptor (αvβ3 from human A375 cells) (Homo sapiens, UniProt P05106+P06756); assay: αvβ3 binding test (echistatin displacement, SPA)
# T1 construct: αvβ3 from human A375 cells was purified analogously to a procedure described by Wong et al; endogenous in cells; host or cells: human A375 cells (endogenous receptor, detergent-solubilised and purified)
# T1 sequence (P06756 31-889 limits assumed): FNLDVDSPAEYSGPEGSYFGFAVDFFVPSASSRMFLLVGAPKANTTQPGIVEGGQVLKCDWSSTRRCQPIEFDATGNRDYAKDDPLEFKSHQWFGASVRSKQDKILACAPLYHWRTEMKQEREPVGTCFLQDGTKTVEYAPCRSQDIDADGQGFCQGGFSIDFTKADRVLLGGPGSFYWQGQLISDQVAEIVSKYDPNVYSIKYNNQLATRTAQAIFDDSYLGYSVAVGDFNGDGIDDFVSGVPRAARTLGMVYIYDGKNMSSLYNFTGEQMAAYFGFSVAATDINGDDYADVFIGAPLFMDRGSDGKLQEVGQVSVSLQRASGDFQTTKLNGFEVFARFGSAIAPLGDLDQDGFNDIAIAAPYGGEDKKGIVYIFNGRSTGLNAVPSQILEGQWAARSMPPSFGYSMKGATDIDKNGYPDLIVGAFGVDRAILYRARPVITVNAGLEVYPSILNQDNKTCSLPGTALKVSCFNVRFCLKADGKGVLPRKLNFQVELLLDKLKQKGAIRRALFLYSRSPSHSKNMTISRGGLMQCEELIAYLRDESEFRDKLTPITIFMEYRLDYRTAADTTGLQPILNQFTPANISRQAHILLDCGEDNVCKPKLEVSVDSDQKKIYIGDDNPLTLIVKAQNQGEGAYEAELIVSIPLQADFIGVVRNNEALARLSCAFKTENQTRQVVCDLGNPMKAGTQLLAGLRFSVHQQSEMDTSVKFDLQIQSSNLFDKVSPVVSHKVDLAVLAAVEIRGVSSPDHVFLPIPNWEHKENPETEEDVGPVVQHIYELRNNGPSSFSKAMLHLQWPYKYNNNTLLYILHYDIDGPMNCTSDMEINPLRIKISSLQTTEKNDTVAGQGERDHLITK
# T1 sequence (P06756 891-1048 partner limits assumed): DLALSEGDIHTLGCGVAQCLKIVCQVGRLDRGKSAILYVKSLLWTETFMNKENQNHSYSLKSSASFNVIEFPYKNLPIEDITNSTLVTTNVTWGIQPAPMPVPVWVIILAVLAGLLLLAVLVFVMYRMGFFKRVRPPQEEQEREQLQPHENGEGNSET
# T1 sequence (P05106 27-788): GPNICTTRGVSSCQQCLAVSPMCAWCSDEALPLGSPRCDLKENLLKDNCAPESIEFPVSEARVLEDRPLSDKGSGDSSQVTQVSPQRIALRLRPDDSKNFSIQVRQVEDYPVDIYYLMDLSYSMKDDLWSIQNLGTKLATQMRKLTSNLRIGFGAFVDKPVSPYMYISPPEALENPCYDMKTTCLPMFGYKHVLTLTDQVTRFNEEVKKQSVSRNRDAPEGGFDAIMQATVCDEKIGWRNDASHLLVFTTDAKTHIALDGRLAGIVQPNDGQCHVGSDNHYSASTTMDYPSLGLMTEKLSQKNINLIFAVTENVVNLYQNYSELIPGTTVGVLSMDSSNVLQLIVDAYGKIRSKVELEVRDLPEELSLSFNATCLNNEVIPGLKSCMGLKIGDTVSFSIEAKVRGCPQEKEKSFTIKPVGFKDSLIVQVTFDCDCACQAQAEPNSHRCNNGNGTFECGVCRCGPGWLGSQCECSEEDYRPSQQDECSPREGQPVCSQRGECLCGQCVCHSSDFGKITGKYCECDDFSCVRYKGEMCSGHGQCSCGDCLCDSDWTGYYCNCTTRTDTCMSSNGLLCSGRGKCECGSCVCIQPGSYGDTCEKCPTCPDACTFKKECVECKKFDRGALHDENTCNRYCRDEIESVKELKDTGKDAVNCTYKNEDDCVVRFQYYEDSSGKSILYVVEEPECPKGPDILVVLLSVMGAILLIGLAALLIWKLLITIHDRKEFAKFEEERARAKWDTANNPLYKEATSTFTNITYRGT
# Protocol: αvβ3 from human A375 cells was purified analogously to a procedure described by Wong et al. in Molecular Pharmacology 50, 529–537 (1996). In each case, 10 μL of αvβ3 (5 ng) in TBS pH 7.6, 2 mM CaCl2, 1 mM MgCl2, 1% n-octylglucopyranoside (Sigma); 10 μL of test substance in TBS pH 7.6, 0.1% DMSO and 45 μL of TBS pH 7.6, 2 mM CaCl2, 1 mM MgCl2, 1 mM MnCl2 were incubated at room temperature for 1 h. In each case, 25 μL of WGA SPA beads (Amersham, 4 mg/ml) and 10 μL of echistatin (0.1 μCi, Amersham, chloramine-T labelled) were then added. After 16 h at room temperature, the samples were measured in a scintillation measuring apparatus (Wallac 1450).
# [2] = system: B16F10 mouse melanoma cell line; assay type: cell-based
# Protocol: (§1) The human large intestine cell lines SW 480 and HT29 (ATCC No. CCL 228) and HTB38 and the mouse melanoma cell line B16F10 (CRL 6475) were grown to confluence in Roux dishes in seromed® RPMI 1640 medium (from Biochrom KG, Berlin) with addition of 10% FCS. They were then trypsinized and taken up in RPMI plus 10% FCS to a cell count of 50,000 cells or, for B16F10, 20,000 cells per mL. 100 μL of cell suspension per well were added to a 96 microwell plate and incubated at 37° C. for 1 day in a CO2 incubator. A further 100 μL of RPMI medium and 1 μL of DMSO were then added with the test substances. The growth was checked after day 6. For this purpose, 25 μL of MTT solution (3-(4,5-dimethylthiazol-2-yl)-2,5-diphenyltetrazolium bromide) were added to each well at a starting concentration of 5 mg/mL of water. The plate was incubated at 37° C. for 5 hours in a CO2 incubator. The medium was then aspirated and 100 1L of i-propanol/well were added. After shaking with 100 μL of water for 30 min, the extinction was measured at 595 nm using a Multiplate Reader (BIO-RAD 3550-UV).
# (§2) The cytostatic action is indicated in Table 3 as an IC50 value, in each case for the individual cell lines.
# [3] = system: HT29 human large intestine cell line; assay type: cell-based
# Protocol: as §1, §2
# [4] = system: SW480 human large intestine cell line; assay type: cell-based
# Protocol: as §1, §2
# [5] = system: breast cancer model (MX-1)
# From the text: (§3) In all in-vivo experiments for investigating the inhibition of tumour growth, athymic nude mice (NMRI nu/nu strain) were used. The tumour was developed by serial passage in nude mice, The human origin of the tumour was confirmed by isoenzymatic and immunohistochemical methods.
# (§4) The tumour was implanted subcutaneously in both flanks of nu/nu nude mice 6 to 8 weeks old. […] The mice were assigned to the treatment group or the control group (5 mice per group having 8 to 10 assessable tumours) by randomization.
# (§5) The size of the tumours was measured in two dimensions by means of a slide gauge. The tumour volume which correlated well with the cell count, was then used for all assessments. The volume was calculated according to the formula “length×breadth×breadth/2” ([a×b^2]/2; a and b representing two diameters arranged at right angles).
# (§6) The values of the relative tumour volume (RTV) were calculated for each individual tumour by dividing the tumour size on day X with the tumour size on day 0 (at the time of randomization). The average values of the RTV were then used for the further assessment.
# (§7) The inhibition of the increase of the tumour volume (tumour volume of the test group/control group, T/C, in percent) was the final measured value.
# The compounds are dissolved in 1% aqueous dextrose solution and administered intravenously from day 1–3 and day 15–17.
# [6] = system: renal xenograft (RXF 944)
# From the text: as §3, §4, §5, §6, §7
# [7] = system: hemopoietic stem cells (bone marrow cells); assay: cells; assay type: cell-based, mice
# Protocol: Bone marrow cells are flushed out of the femur of mice. 10^5 cells are incubated in McCoy 5A medium (0.3% agar) together with recombinant murine GM-CSF (Genzyme; parent cell colony formation) and the substances (10^−4 to 100 μg/ml) at 37° C. and 7% CO2. 7 days later, the colonies (<50 cells) and clusters (17–50 cells) are counted.
# [8] = system: melanoma xenograft (MEXF 989); assay type: in vivo, athymic nude mice (NMRI nu/nu strain)
# [9] = read-out: IC50 values of the binding to the αVβ3 receptor
# [10] = IC50 values of the binding to the αVβ3 receptor
# [11] = MX-1, 6 mg/kg/day intravenously day 1–3 and day 15–17
# [12] = RXF 944, 6 mg/kg/day intravenously day 1–3 and day 15–17
# [13] = MEXF 989, 6 mg/kg/day intravenously day 1–3 and day 15–17
SMILES,"IC50 [1, 9]",IC50 [2],IC50 [3],IC50 [4],toxicity against stem cells in vitro compared to camptothecin (in words) [7],further results
"CCCNC(=O)Nc1cccc(S(=O)(=O)Nc2cccc(C(CC(=O)O)NC(=O)Nc3ccc(NC(=S)N[C@@H](CC(N)=O)C(=O)N4CCC[C@H]4C(=O)N[C@H](C(=O)O[C@]4(CC)C(=O)OCc5c4cc4n(c5=O)Cc5cc6ccccc6nc5-4)C(C)C)cc3)c2)c1 (single isomer, unassigned) [Example 6]",0.1 µM,0.6 µM,0.2 µM,0.4 µM,–,–
"CCCNC(=O)Nc1cccc(S(=O)(=O)Nc2cccc(C(CC(=O)[O-])NC(=O)Nc3ccc(NC(=S)NCC(=O)N4CCC[C@H]4C(=O)N[C@H](C(=O)O[C@]4(CC)C(=O)OCc5c4cc4n(c5=O)Cc5cc6ccccc6nc5-4)C(C)C)cc3)c2)c1.[Na+] (single isomer, unassigned) [Example 1]",–,0.16 µM,0.06 µM,0.15 µM,drastically reduced toxicity against stem cells in vitro compared to camptothecin,"lethality ([5]; MX-1, 18 mg/kg/day intravenously day 1–3 and day 15–17): 0/5; lethality ([6]; RXF 944, 18 mg/kg/day intravenously day 1–3 and day 15–17): 1/7; lethality ([6]; RXF 944, 24 mg/kg/day intravenously day 1–3 and day 15–17): 0/7; lethality ([8]; MEXF 989, 18 mg/kg/day intravenously day 1–3 and day 15–17): 1/5; lethality ([8]; MEXF 989, 24 mg/kg/day intravenously day 1–3 and day 15–17): 1/5; IC50 [1, 10]: 0.008 µM"
"CCCNC(=O)Nc1cccc(S(=O)(=O)Nc2cccc(C(CC(=O)O)NC(=O)Nc3ccc(NC(=S)N[C@@H](CC(=O)O)C(=O)N4CCC[C@H]4C(=O)N[C@H](C(=O)O[C@]4(CC)C(=O)OCc5c4cc4n(c5=O)Cc5cc6ccccc6nc5-4)C(C)C)cc3)c2)c1 (single isomer, unassigned) [Example 8]",–,0.3 µM,0.05 µM,0.05 µM,–,–
"CCCNC(=O)Nc1cccc(S(=O)(=O)Nc2cccc(C(CC(=O)O)NC(=O)Nc3ccc(NC(=S)N[C@@H](Cc4c[nH]cn4)C(=O)N4CCC[C@H]4C(=O)N[C@H](C(=O)O[C@]4(CC)C(=O)OCc5c4cc4n(c5=O)Cc5cc6ccccc6nc5-4)C(C)C)cc3)c2)c1 (single isomer, unassigned) [Example 5]",0.03 µM,1 µM,0.3 µM,0.7 µM,–,–
"CCCNC(=O)Nc1cccc(S(=O)(=O)Nc2cccc(C(CC(=O)O)NC(=O)Nc3ccc(NC(=S)N[C@@H](C)C(=O)N4CCC[C@H]4C(=O)N[C@H](C(=O)O[C@]4(CC)C(=O)OCc5c4cc4n(c5=O)Cc5cc6ccccc6nc5-4)C(C)C)cc3)c2)c1 (single isomer, unassigned) [Example 4]",0.5 µM,0.7 µM,0.15 µM,0.6 µM,drastically reduced toxicity against stem cells in vitro compared to camptothecin,–
"CCCNC(=O)Nc1cccc(S(=O)(=O)Nc2cccc(C(CC(=O)[O-])NC(=O)Nc3ccc(NC(=S)NCC(=O)N4CCC[C@H]4C(=O)N[C@H](C(=O)O[C@]4(CC)C(=O)OCc5c4cc4n(c5=O)Cc5cc6ccccc6nc5-4)C(C)C)cc3)c2)c1.[Na+] (single isomer, unassigned) [Example 2]",–,0.4 µM,0.15 µM,0.4 µM,drastically reduced toxicity against stem cells in vitro compared to camptothecin,"IC50 [1, 10]: 0.8 µM"
"CCCNC(=O)Nc1cccc(S(=O)(=O)Nc2cccc(C(CC(=O)O)NC(=O)Nc3ccc(NC(=S)NCC(=O)N4CCC[C@H]4C(=O)N[C@@H](CC(C)C)C(=O)O[C@]4(CC)C(=O)OCc5c4cc4n(c5=O)Cc5cc6ccccc6nc5-4)cc3)c2)c1 (single isomer, unassigned) [Example 9]",–,0.08 µM,0.03 µM,0.07 µM,–,–
"CC[C@@]1(O)C(=O)OCc2c1cc1n(c2=O)Cc2cc3ccccc3nc2-1 [camptothecin, 20(S)-Camptothecin, reference compound]",–,–,–,–,–,"lethality ([6]; RXF 944, 2.5 mg/kg/day): 0/6; optimal T/C ([6]; RXF 944, 2.5 mg/kg/day): 41.1%; IC50 ([7]; Mus musculus, Bone marrow cell, 168 h, murine bone marrow cells, GM-CSF, 7 days, read-out: IC50 values of toxicity against hemopoietic stem cells): 3 ng/mL"
"CC[C@@]1(O)C(=O)OCc2c1cc1n(c2=O)Cc2cc3c(CN(C)C)c(O)ccc3nc2-1 [topotecan, reference compound]",–,–,–,–,–,"lethality ([6]; RXF 944, 1.8 mg/kg/day): 0/7; optimal T/C ([6]; RXF 944, 1.8 mg/kg/day): 47.8%"
"CCCNC(=O)Nc1cccc(S(=O)(=O)Nc2cccc(C(CC(=O)O)NC(=O)Nc3ccc(NC(=S)N[C@@H](C)C(=O)N4CCC[C@H]4C(=O)N[C@@H](CC(C)C)C(=O)NC4C=CCC5CN(c6c(F)cc7c(=O)c(C(=O)O)cn(C8CC8)c7c6Cl)CC54)cc3)c2)c1 (single isomer, unassigned) [Example 12]",0.03 µM,–,–,–,–,IC50 ([2]; 6 days): 2 µM; IC50 ([3]; 6 days): 0.6 µM; IC50 ([4]; 6 days): 1 µM
"CCCNC(=O)Nc1cccc(S(=O)(=O)Nc2cccc(C(CC(=O)O)NC(=O)Nc3ccc(NC(=S)N[C@@H](CCC)C(=O)N4CCC[C@H]4C(=O)N[C@H](C(=O)O[C@]4(CC)C(=O)OCc5c4cc4n(c5=O)Cc5cc6ccccc6nc5-4)C(C)C)cc3)c2)c1 (single isomer, unassigned) [Example 7]",0.1 µM,1 µM,0.35 µM,0.6 µM,–,–
"CCCNC(=O)Nc1cccc(S(=O)(=O)Nc2cccc(C(CC(=O)O)NC(=O)Nc3ccc(NC(=S)N[C@@H](C)C(=O)N4CCC[C@H]4C(=O)N[C@H](C(=O)O[C@]4(CC)C(=O)OCc5c4cc4n(c5=O)Cc5cc6ccccc6nc5-4)C(C)C)cc3)c2)c1 (single isomer, unassigned) [Example 3]",0.015 µM,0.7 µM,0.15 µM,0.5 µM,drastically reduced toxicity against stem cells in vitro compared to camptothecin,"lethality [5, 11]: 0/5; optimal T/C [5, 11]: 12.4%; inhibition of the tumour growth (in words) ([5]; MX-1, intravenously day 1–3 and day 15–17): effected inhibitions of the tumour growth; lethality [6, 12]: 1/7; optimal T/C [6, 12]: 24.0%; inhibition of the tumour growth (in words) ([6]; RXF 944, intravenously day 1–3 and day 15–17): effected inhibitions of the tumour growth; lethality [8, 13]: 0/5; optimal T/C [8, 13]: 10.3%; inhibition of the tumour growth (in words) ([8]; MEXF 989, intravenously day 1–3 and day 15–17): effected inhibitions of the tumour growth"
